Results taken from article PMC12068934 (Nature chemistry, 2024).

How the values were obtained:
SenA = SenA (Variovorax paradoxus, UniProt A0ACH4EUD1); test: preparative enzymatic synthesis, product NMR; format: biochemical; details: DTT 20 mM, pH 8, room temperature, 24 h
OvsA = OvsA (Vreelandella halophila, UniProt A0A9X4Y9G9); test: LC-MS after mBBr derivatization; format: biochemical; details: histidine 1 mM, DTT 4 mM, pH 8, room temperature

Row | Compound | preparative enzymatic synthesis, product NMR (SenA; SeGlcNAc 6 mM) | preparative enzymatic synthesis, product NMR (SenA; hercynine 5 mM) | LC-MS after mBBr derivatization (OvsA)
1 | C[N+](C)(C)[C@@H](Cc1cnc[nH]1)C(=O)[O-] [hercynine, Nα-trimethylhistidine] | large-scale reaction containing SenA and its substrates hercynine and SeGlcNAc |  | 
2 | CC(=O)N[C@@H]1[C@@H](O)[C@H](O)[C@@H](CO)O[C@H]1[SeH] [SeGlcNAc, N-acetyl-1-seleno-β-D-glucosamine] |  | large-scale reaction containing SenA and its substrates hercynine and SeGlcNAc | reaction of the NHISS with SeGlcNAc and histidine resulted in rapid formation of a species
